Reference: patent US8507656B2, “Stabilized angiopoietin-2 antibodies and uses thereof” (MedImmune Limited, priority 2008, dated 2013)
Entries after “also recorded” stand apart in the source; their conditions may differ. Where two headings read alike, the source gives them in different places. Marks after values point to notes of the source that are not given here.

What was measured:
[1] = system: MDA-MB-231 xenograft tumors; test: MDA-MB-231 orthotopic breast cancer xenograft model; format: in vivo; conditions: 3.19.3 10 mg/kg 2×wk i.p., AZD6495 30 mg/kg bid p.o. 18 d, combination of both
Procedure: The anti-tumor activity of the anti-Angiopoietin-2 monoclonal antibody 3.19.3 in combination with the small molecule CSF1R tyrosine kinase inhibitor AZD6495 was evaluated in a xenograft model of human breast carcinoma using the MDA-MB-231 cell line (FIG. 5a).
Breast adenocarcinoma MDA-MB-231 cells were cultured in flasks as routine until the cells reach sub-confluence. Immunodeficient 7-10 week old female nude mice were orthotopically implanted with 8×10^6 MDA-MB-231 cells suspended 1:1 in Matrigel into the mammary fat pad. The mice were then randomized into cohorts containing 10 mice once the tumors reached approximately 100 mm^3. The mice were treated by intraperitoneally (IP) injection with mAb 3.19.3 (10 mg/kg) twice per week for 3 weeks thereafter, or by oral administration of AZD6495 (30 mg/kg) following bid dosing for 18 days. […] The body weights of each animal, and the dimensions of each tumor were measured twice per week. The volume of the tumor was calculated as: Volume=Length×(Width)^2×0.5 cm^3, or by bilateral Vernier caliper measurement and, taking length to be the longest diameter across the tumor and width the corresponding perpendicular, calculated using the formula (π/6)×(length×width)×√(length×width). Growth inhibition from the start of treatment was assessed by comparison of the differences in tumor volume between control and treated groups.

LoVo xenograft tumors = format: in vivo; conditions: 3.19.3 10 mg/kg 2×wk i.p., 5FU 100 mg/kg/week i.p., combination of both
Procedure: (§1) The anti-tumor activity of 3.19.3 was evaluated in combination with 5-Fluoruracil (5FU) in the LoVo xenograft model of colorectal cancer. LoVo cells were cultured in flasks as routine until the cells reached sub-confluence. Cell suspensions containing approximately 3×10E6 cells were injected subcutaneously into the flank of female Swiss nude mice. When the tumor volume reached 200 mm^3, the mice were randomized in treatment groups of 8-10 mice and the treatments were initiated. 3.19.3 (10 mg/kg) in saline was injected intraperitoneally, twice per week for 2 weeks and 5-Flurouracil (100 mg/kg) was administered by intraperitoneal administration following a weekly schedule. The dimensions of each tumor and body weights were measured at least twice per week. The volume of the tumor was calculated as: Volume=Length×(Width)×0.5 (cm^3).

HT-29 xenograft tumors = test: HT-29 xenograft model of colorectal cancer; format: in vivo; conditions: 3.19.3 10 mg/kg 2×wk i.p., Irinotecan 35 mg/kg/week i.v., combination of both
Procedure: as §1, with “with Irinotecan” for “with 5-Fluoruracil (5FU)”, “the HT-29” for “the LoVo”, “cancer. HT-29” for “cancer. LoVo”, “2 weeks. Irinotecan (35” for “2 weeks and 5-Flurouracil (100”, “by intravenous” for “by intraperitoneal”, “(cm^3). […] The % tumor growth inhibition achieved is as follows: […]” for “(cm^3).”

Calu6 xenograft tumors = format: in vivo; conditions: 3.19.3 10 mg/kg 2×wk i.p., Docetaxel 15 mg/kg/week i.v., combination of both
Procedure: as §1, with “with Docetaxel” for “with 5-Fluoruracil (5FU)”, “the Calu6” for “the LoVo”, “of lung” for “of colorectal”, “cancer. Calu6” for “cancer. LoVo”, “2 weeks. Docetaxel (15” for “2 weeks and 5-Flurouracil (100”, “by intravenous” for “by intraperitoneal”

H460 xenograft tumors [2] = format: in vivo; conditions: 3.19.3 10 mg/kg 2×wk i.p., Oxaliplatin 5 mg/kg/week i.p., combination of both
Procedure: as §1, with “Oxaliplatin” for “5-Fluoruracil (5FU)”, “H460” for “LoVo”, “lung” for “colorectal”, “weeks. Oxaliplatin (5” for “weeks and 5-Flurouracil (100”

H460 xenograft tumors [3] = format: in vivo; conditions: 3.19.3 10 mg/kg 2×wk i.p., AZD4877 10 mg/kg q4dx2 i.p., combination of both
Procedure: The anti-tumor activity of 3.19.3 was evaluated in combination with AZD4877 in the
H460 xenograft model of lung cancer. H460 cells were cultured in flasks as routine until the cells reached sub-confluence. Cell suspensions containing approximately 3×10E6 cells were injected subcutaneously into the right flank of male NCr nu/nu mice. When the tumor volume reached 200 mm^3, the mice were randomized in treatment groups of 8-10 mice and the treatments were initiated. 3.19.3 (10 mg/kg) in saline was injected intraperitoneally, twice per week for 2 weeks. AZD4877 (10 mg/kg) was administered by intraperitoneal administration following a q4d schedule. The dimensions of each tumor and body weights were measured at least twice per week. The volume of the tumor was calculated as: Volume=Length×(Width)×0.5 (cm^3).

[4] = system: collagen-induced arthritis; test: Collagen-induced arthritis (CIA), dose response (Example 11); format: in vivo, male DBA/1 mice
[5] = 0.1 mg/kg ip every 3 days for 14 days from disease onset
[6] = 1 mg/kg ip every 3 days for 14 days from disease onset
[7] = 10 mg/kg ip every 3 days for 14 days from disease onset

3.19.3: fully human anti-Ang-2 monoclonal antibody, wild type control; light chain SEQ ID No. 1, heavy chain SEQ ID No. 2 [Antibody 3.19.3]
% tumor growth inhibition [1]: 17%
% tumor growth inhibition (LoVo xenograft tumors): 59%
% tumor growth inhibition (HT-29 xenograft tumors): 44%
% tumor growth inhibition (Calu6 xenograft tumors): 20%
% tumor growth inhibition (H460 xenograft tumors [2]): 67%
% tumor growth inhibition (H460 xenograft tumors [3]): 64%
% inhibition (AUC of Clinical Score) [4, 5]: 16% +/− 13%
AUC of Clinical Score [4, 5]: 99 +/− 15
% inhibition (AUC of Clinical Score) [4, 6]: 53% +/− 7%*
AUC of Clinical Score [4, 6]: 46 +/− 9
% inhibition (AUC of Clinical Score) [4, 7]: 44% +/− 9%*
AUC of Clinical Score [4, 7]: 67 +/− 11
CD31+ microvessel density in synovium (in words) ([4]; 3.19.3 0.1 mg/kg): no effect
histopathological evaluation: synovial hyperplasia, synovitis, pannus, synovial fibrosis, periostitis (in words) ([4]; 3.19.3 0.1, 1 and 10 mg/kg, isotype control vs PBS vehicle): dose-dependent anti-arthritic effect
CD31+ microvessel density in synovium (in words) ([4]; 3.19.3 at 1 and 10 mg/kg, prednisolone 3 mg/kg): significant reduction in microvessel density; also recorded: significant reduction in the presence of microvessels
clinical signs of disease progression (arthritic score) (in words) ([4]; doses of 1 and 10 mg/kg): significant reduction
